Results on 37 molecules are retold here after patent US7732604B2, “Triazolopyrazine derivatives” (Pfizer Inc., priority 2006, dated 2010).

Structures can show the parent of a compound that is named as a salt.

For this test, the target named is T1, HGFR (Homo sapiens, UniProt P08581).
T1 construct: purchased Upstate 14-526
T1 sequence (P08581 974-1390 limits assumed): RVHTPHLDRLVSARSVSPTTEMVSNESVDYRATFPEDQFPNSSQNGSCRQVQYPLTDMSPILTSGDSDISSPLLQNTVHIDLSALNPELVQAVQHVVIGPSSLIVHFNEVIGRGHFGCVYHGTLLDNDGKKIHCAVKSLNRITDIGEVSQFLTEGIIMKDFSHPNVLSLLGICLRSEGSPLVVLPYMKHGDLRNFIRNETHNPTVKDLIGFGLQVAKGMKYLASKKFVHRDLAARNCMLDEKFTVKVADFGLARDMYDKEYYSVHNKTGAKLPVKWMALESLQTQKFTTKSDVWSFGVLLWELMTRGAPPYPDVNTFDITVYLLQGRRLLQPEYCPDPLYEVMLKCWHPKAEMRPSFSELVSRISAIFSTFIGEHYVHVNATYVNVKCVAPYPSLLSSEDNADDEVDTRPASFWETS
Nature of the test: HGFR continuous-coupled spectrophotometric assay (tyrosine kinase activity on Met-2 substrate peptide). To be noted: HGFR 50 nM, Met-2 peptide 0.5 mM, ATP 300 μM, 37° C., absorbance 340 nm; read-out: Ki. The test is classed as biochemical.
A word on the Ki: it is a dissociation constant, usually derived from enzyme kinetics or from competition with a known ligand. As to `OCC1CCN(c2cnc3nnn(Cc4ccc5ncccc5c4)c3n2)CC1` [Example 80, {1-[1-(quinolin-6-yl-methyl)-1H-[1,2,3]tri-azolo[4,5-b]py-razin-6-yl]pipe-ridin-4-yl}methanol], the Ki amounted to 21 nM. The figure for `FC1(F)CCN([C@H]2CCN(c3cnc4nnn(Cc5ccc6ncccc6c5)c4n3)C2)CC1` [Example 207, 6-({6-[(3S)-3-(4,4-di-fluoropiperidin-1-yl)pyrro-lidin-1-yl]-1H-[1,2,3]tri-azolo[4,5-b]pyra-zin-1-yl}meth-yl)quinoline. TFA salt] is 23 nM. On to `CC(=O)N1CC[C@@H](Nc2cnc3nnn(Cc4ccc5ncccc5c4)c3n2)C1` [Example 126, N-[(3R)-1-acetyl-pyrrolidin-3-yl]-1-(quino-lin-6-yl-methyl)-1H-[1,2,3]tri-azolo[4,5-b]pyra-zin-6-amine], for which the Ki came out at 16 nM. Turning to `O=C1CCN(c2cnc3nnn(Cc4ccc5ncccc5c4)c3n2)C1` [Example 154, 1-[1-(quinolin-6-yl-methyl)-1H-[1,2,3]tri-azolo[4,5-b]pyra-zin-6-yl]pyrro-lidin-3-one], the Ki is 39 nM. `CN(C)CC1(O)CCN(c2cnc3nnn(Cc4ccc5ncccc5c4)c3n2)C1` (stereo not shown) [Example 158, 3-[(di-methylamino)meth-yl]-1-[1-(quino-lin-6-yl-methyl)-1H-[1,2,3]tri-azolo[4,5-b]pyra-zin-6-yl]pyrro-lidin-3-ol]: the inhibitory constant (Ki) was found to be 31 nM. As to `c1cnc2ccc(Cn3nnc4ncc(-c5ccn[nH]5)nc43)cc2c1` [Example 69, 6-[6-(2H-Pyrazol-3-yl)-[1,2,3]triazolo[4,5-b]pyrazin-1-ylmethyl]-quinoline], the Ki was found to be 3 nM. On to `COCCOc1cnc2nnn(Cc3ccc4ncccc4c3)c2n1` [Example 169, 6-{[6-(2-methoxy-ethoxy)-1H-[1,2,3]tri-azolo[4,5-b]pyra-zin-1-yl]meth-yl}quinoline], for which the Ki amounted to 26 nM. As for `COC(=O)Cn1cc(-c2cnc3nnn(Cc4ccc5ncccc5c4)c3n2)cn1` [Example 66, [4-(3-Quinolin-6-ylmethyl-3H-[1,2,3]triazolo[4,5-b]pyrazin-5-yl)-pyrazol-1-yl]-acetic acid methyl ester], the Ki came out at 18 nM. Take `OCCC1(CO)CCN(c2cnc3nnn(Cc4ccc5ncccc5c4)c3n2)C1` (stereo not shown) [Example 106, 2-{3-(hydroxy-methyl)-1-[1-(quino-lin-6-ylmethyl)-1H-[1,2,3]tri-azolo[4,5-b]pyra-zin-6-yl]pyr-rolidin-3-yl}ethanol]: the Ki worked out at 9 nM.

Regarding `COc1ccc(-c2cnc3nnn(Cc4ccc5ncccc5c4)c3n2)cc1` [Example 21, 6-((6-(4-methoxyphenyl)-1H-[1,2,3]triazolo[4,5-b]pyrazin-1-yl)methyl)-quinoline], the Ki was determined as 4 nM.

With `CCc1nc(CN(C)c2cnc3nnn(Cc4ccc5ncccc5c4)c3n2)no1` [Example 87, N-[(5-ethyl-124-oxa-diazol-3-yl)meth- ]-N-meth-yl-1-(quino-lin-6-yl-methyl)-1H-[1,2,3]tri-azolo[4,5-b]pyra-zin-6-amine], the Ki turned out to be 54 nM. On to `CNC(=O)c1cnc2nnn(Cc3ccc4ncccc4c3)c2n1` [Example 195, N-methyl-1-(quino-lin-6-yl-methyl)-1H-[1,2,3]tri-azolo[4,5-b]pyra-zine-6-carboxamide], for which the Ki was 117 nM. In the case of `CNC(=O)c1ccc(-c2cnc3nnn(Cc4ccc5ncccc5c4)c3n2)cc1` [Example 19, N-methyl-4-(3-(quinolin-6-ylmethyl)-3H-[1,2,3]triazolo[4,5-b]pyrazin-5-yl)benzamide], the Ki was 3 nM. As to `O=C(O)c1cc(F)cc(-c2cnc3nnn(Cc4ccc5ncccc5c4)c3n2)c1` [Example 40, 3-fluoro-5-(3-(quinolin-6-ylmethyl)-3H-[1,2,3]triazolo[4,5-b]pyrazin-5-yl)benzoic acid], the Ki was found to be 12 nM. In the case of `C[C@H](O)CNc1cnc2nnn(Cc3ccc4ncccc4c3)c2n1` [Example 117, (2S)-1-{[1-(quino-lin-6-yl-methyl)-1H-[1,2,3]tri-azolo[4,5-b]pyra-zin-6-yl]ami-no}propan-2-ol], the Ki came to 11 nM.

In the case of `C[C@@H](CO)Nc1cnc2nnn(Cc3ccc4ncccc4c3)c2n1` [Example 118, (2S)-2-{[1-(quino-lin-6-yl-methyl)-1H-[1,2,3]tri-azolo[4,5-b]pyra-zin-6-yl]ami-no}propan-1-ol], the Ki came to 41 nM. `NC(=O)CNc1cnc2nnn(Cc3ccc4ncccc4c3)c2n1` [Example 140, N~2~-[1-(quino-lin-6-yl-methyl)-1H-[1,2,3]tri-azolo[4,5-b]pyra-zin-6-yl]glycinamide]: the inhibitory constant (Ki) turned out to be 47 nM. Consider `CC(N)c1cnc2nnn(Cc3ccc4ncccc4c3)c2n1` (stereo not shown) [Example 183, 1-(3-Quinolin-6-yl-methyl-3H-[1,2,3]tri-azolo[4,5-b]pyra-zin-5-yl)-ethylamine], for which the Ki came out at 837 nM. Regarding `CC(C)(C(N)=O)n1cc(-c2cnc3nnn(Cc4ccc5ncccc5c4)c3n2)cn1` [Example 67, 2-[4-(3-Quinolin-6-ylmethyl-3H-[1,2,3]triazolo[4,5-b]pyrazin-5-yl)-pyrazol-1-yl]-isobutyramide], the Ki was found to be 41 nM. On to `CC(C)(C)OC(=O)N[C@@H]1CCN(c2cnc3nnn(Cc4ccc5ncccc5c4)c3n2)C1` [Example 200, (R)-tert-butyl 1-(3-(quino-lin-6-yl-methyl)-3H-[1,2,3]tri-azolo[4,5-b]pyra-zin-5-yl)pyrrolidin-3-ylcarbamate], for which the Ki is 162 nM. For `COc1cccc(-c2cnc3nnn(Cc4ccc5ncccc5c4)c3n2)c1` [Example 20, 6-((6-(3-methoxyphenyl)-1H-[1,2,3]triazolo[4,5-b]pyrazin-1-yl)methyl)-quinoline], the Ki was determined as 3 nM.

On to `CC(C)(O)CNc1cnc2nnn(Cc3cc4cccnc4cc3F)c2n1` [Example 172, 1-({1-[(7-fluoro-quinolin-6-yl)meth-yl]-1H-[1,2,3]tri-azolo[4,5-b]pyra-zin-6-yl}ami-no)-2-methyl-propan-2-ol], for which the Ki was found to be 4 nM. For `CC[C@H](CO)Nc1cnc2nnn(Cc3ccc4ncccc4c3)c2n1` [Example 116, (2R)-2-{[1-(quino-lin-6-yl-methyl)-1H-[1,2,3]tri-azolo[4,5-b]pyra-zin-6-yl]ami-no}butan-1-ol], the Ki stood at 10 nM. For `CC(c1ccc2c(c1)OCCO2)n1nnc2ncc(-c3cnn(C)c3)nc21` (stereo not shown) [Example 56, 1-[1-(2,3-Dihydro-benzo[1,4]dioxin-6-yl)-ethyl]-6-(1-methyl-1H-pyrazol-4-yl)-1H-[1,2,3]triazolo[4,5-b]pyrazine], the Ki was found to be 37 nM. Under `CC(c1ccc2c(c1)OCCO2)n1nnc2ncc(N3CC[C@@H](N)C3)nc21` (stereo partly drawn) [Example 181, (R)-1-{3-[1-(2,3-Dihydro-benzo[1,4]dioxin-6-yl)-eth-yl]-3H-[1,2,3]triaz-olo[4,5-b]pyra-zin-5-yl}-pyrro-lidin-3-ylamine] stands 177 nM; under `OC[C@H]1C[C@@H]1CNc1cnc2nnn(Cc3ccc4ncccc4c3)c2n1` [Example 129, [(1S,2S)-2-({[1-(quino-lin-6-yl-methyl)-1H-[1,2,3]tri-azolo[4,5-b]pyrazin-6-yl]ami-no}methyl)cyclo-propyl]methanol], 13 nM. Regarding `CC(O)CNc1cnc2nnn(Cc3ccc4ncccc4c3)c2n1` (stereo not shown) [Example 113, 1-{[1-(quinolin-6-yl-methyl)-1H-[1,2,3]tri-azolo[4,5-b]pyra-zin-6-yl]ami-no}propan-2-ol], the Ki was 8 nM.

Turning to `CN(C)[C@@H]1CCN(c2cnc3nnn(Cc4ccc5c(c4)CCO5)c3n2)C1` [Example 43, {(R)-1-[3-(2,3-Dihydro-benzofuran-5-ylmethyl)-3H-[1,2,3]triazolo[4,5-b]pyrazin-5-yl]-pyrrolidin-3-yl}-dimethyl-amine], the Ki turned out to be 45 nM. Regarding `CC(C)(O)CNc1cnc2nnn(Cc3ccc4ncccc4c3)c2n1` [Example 167, 2-methyl-1-{[1-(quino-lin-6-ylmeth-yl)-1H-[1,2,3]tri-azolo[4,5-b]pyra-zin-6-yl]ami-no}propan-2-ol], the Ki was 13 nM.

Turning to `CN(CCO)c1cnc2nnn(Cc3ccc4ncccc4c3)c2n1` [Example 78, 2-{methyl[1-(quino-lin-6-yl-methyl)-1H-[1,2,3]tri-azolo[4,5-b]py-razin-6-yl]ami-no}ethanol], the Ki came out at 37 nM. For `NC[C@H]1CCN(c2cnc3nnn(Cc4ccc5ncccc5c4)c3n2)C1` [Example 136, 1-[(3R)-1-[1-(quino-lin-6-yl-methyl)-1H-[1,2,3]tri-azolo[4,5-b]pyra-zin-6-yl]pyrro-lidin-3-yl}methanamine], the Ki amounted to 30 nM. Consider `c1cnc2ccc(Cn3nnc4ncc(OC5CCOCC5)nc43)cc2c1` [Example 142, 6-{[6-(tetra-hydro-2H-py-ran-4-yloxy)-1H-[1,2,3]tri-azolo[4,5-b]pyra-zin-1-yl]meth-yl}quinoline], for which the Ki is 49 nM. In the case of `CCN(CCO)c1cnc2nnn(Cc3ccc4ncccc4c3)c2n1` [Example 74, 2-{ethyl[1-(quino-lin-6-yl-methyl)-1H-[1,2,3]tri-azolo[4,5-b]py-razin-6-yl]ami-no}ethanol], the Ki was found to be 33 nM.

Turning to `OC[C@@H]1C[C@H](F)CN1c1cnc2nnn(Cc3ccc4ncccc4c3)c2n1` [Example 96], the Ki stood at 17 nM. With `NC(=O)C1CCN(c2cnc3nnn(Cc4ccc5ncccc5c4)c3n2)C1` (stereo not shown) [Example 177, 1-[1-(quinolin-6-yl-methyl)-1H-[1,2,3]tri-azolo[4,5-b]pyra-zin-6-yl]pyrro-lidine-3-carboxamide], the Ki turned out to be 29 nM. In the case of `CC(C)(CNc1cnc2nnn(Cc3ccc4ncccc4c3)c2n1)NC(=O)OC(C)(C)C` [Example 188, tert-butyl(1,1-di-methyl-2-{[1-(quino-lin-6-yl-methyl)-1H-[1,2,3]tri-azolo[4,5-b]pyra-zin-6-yl]ami-no}ethyl)carbamate], the Ki came out at 103 nM. `c1cnc2ccc(Cn3nnc4ncc(-c5cnn(C6CNC6)c5)nc43)cc2c1` [Example 1, 6-((6-(1-(azetidin-3-yl)-1H-pyrazol-4-yl)-1H-[1,2,3]-triazolo[4,5-b]pyrazin-1-yl)methyl)-quinoline]: the Ki turned out to be 8 nM.
